# Assay results published in the supplement of paper PMC10307832.
# Tests used:
# Test in all cases: relative viability (nuclei count vs DMSO), 5 days (fraction); higher = more cells survive
# Carfilzomib = compound: CC(C)C[C@H](NC(=O)[C@H](CCc1ccccc1)NC(=O)CN1CCOCC1)C(=O)N[C@@H](Cc1ccccc1)C(=O)N[C@@H](CC(C)C)C(=O)[C@@]1(C)CO1 [Carfilzomib]
# Outline: (§1)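 In 1536-well plates, lung cancer cell lines rested overnight at 37 °C before five library-drug doses (not always all listed), √10 apart, were pinned onto vehicle-anchored plates. Nuclei were counted with MetaXpress from 4× Hoechst images taken after 5 days without medium change. Viability compares treated-well with vehicle-well nuclei as a median over plates, and plates needed control CV below 25% plus at least one doubling to pass.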
# Olaparib = compound: O=C(c1cc(Cc2n[nH]c(=O)c3ccccc23)ccc1F)N1CCN(C(=O)C2CC2)CC1 [Olaparib]
# Outline: as §1
# Crizotinib = compound: C[C@@H](Oc1cc(-c2cnn(C3CCNCC3)c2)cnc1N)c1c(Cl)ccc(F)c1Cl [Crizotinib]
# Outline: as §1
# Olaparib + Pictilisib = compound: O=C(c1cc(Cc2n[nH]c(=O)c3ccccc23)ccc1F)N1CCN(C(=O)C2CC2)CC1 [Olaparib] + CS(=O)(=O)N1CCN(Cc2cc3nc(-c4cccc5[nH]ncc45)nc(N4CCOCC4)c3s2)CC1 [Pictilisib] (partner 1 µM)
# Outline: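 Dosing by pin tool came one day after lung cancer cell lines were seeded in 1536-well plates, using either one drug or a fixed anchor-drug dose plus five library-drug doses (not always all listed) in √10 steps. After 5 days, nuclei were counted on 4× images. Relative viability is treated-well nuclei count divided by vehicle-well nuclei count, and values are medians of duplicate plates.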
Cell Line,relative viability (Carfilzomib; 0.001 µM),relative viability (Carfilzomib; 0.003162 µM),relative viability (Carfilzomib; 0.01 µM),relative viability (Carfilzomib; 0.03162 µM),relative viability (Carfilzomib; 0.1 µM),relative viability (Olaparib; 0.08 µM),relative viability (Olaparib; 0.253 µM),relative viability (Olaparib; 2.53 µM),relative viability (Olaparib; 8 µM),"relative viability (Olaparib; 8 µM, anchor plate)",relative viability (Crizotinib; 0.01 µM),relative viability (Crizotinib; 0.03162 µM),relative viability (Crizotinib; 0.1 µM),relative viability (Crizotinib; 0.3162 µM),relative viability (Crizotinib; 1 µM),"relative viability (Crizotinib; 1 µM, anchor plate)",relative viability (Olaparib + Pictilisib; first compound 0.08 µM),relative viability (Olaparib + Pictilisib; first compound 0.253 µM),relative viability (Olaparib + Pictilisib; first compound 2.53 µM),relative viability (Olaparib + Pictilisib; first compound 8 µM)
201T,0.957,1.01,1.01,1.04,0.849,1.01,0.888,0.922,1.01,0.835,0.95,1,0.95,1.03,1,1.01,0.669,0.665,0.631,0.704
A549,0.967,1.03,0.954,0.525,0.043,1.13,0.875,0.898,0.681,0.361,0.963,1.03,0.948,1.04,0.987,0.755,0.636,0.398,0.456,0.376
A-427,0.936,1.15,0.957,0.479,0.134,1.09,0.945,0.884,0.782,0.713,0.965,1.03,1.03,,1.01,0.906,0.697,0.571,0.547,0.584
ABC-1,0.92,0.75,0.39,0.221,0.291,1.15,0.882,0.863,0.932,0.847,0.845,0.885,0.995,0.878,0.982,1.18,0.916,0.777,0.65,0.625
BEN,0.902,1.09,0.944,0.843,0.433,0.948,0.775,1.01,1.03,1.06,0.867,0.974,0.886,0.807,1.02,0.86,0.52,0.551,0.593,0.674
CAL-12T,0.933,1.19,1.1,0.736,0.138,1.21,0.966,0.976,0.888,0.706,0.917,0.973,0.974,0.837,0.981,0.683,0.772,0.413,0.452,0.439
COR-L23,1.06,1.13,0.846,0.0978,0.0691,1.04,1.04,0.908,0.579,0.353,1.01,1.04,0.963,0.978,0.885,0.623,0.918,0.674,0.724,0.385
COR-L 105,1.06,0.931,0.962,0.318,0.26,0.896,0.87,0.763,0.785,0.697,0.844,0.938,0.901,0.847,0.932,0.826,0.389,0.392,0.415,0.387
